Here are results for 16 compounds from US20180072997A1, “INHIBITORS OF HUMAN IMMUNODEFICIENCY VIRUS REPLICATION” (ViiV HEATHCARE UK (NO.5) LIMITED, priority 2015, published 2018).

Series [1] deals with recombinant NL4-3 virus (Renilla luciferase in nef) in MT-2 cells. Description: whole plant or invertebrate. The settings on record: luciferase activity. It is filed as cell-based, HIV. The method, boiled down:
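MT-2 cells infected for 4-5 days with NL4-3 reporter virus (Renilla luciferase replacing part of nef, produced by transfection of 293T cells) in the presence of serial compound dilutions. Antiviral activity quantified by luciferase activity read with a live-cell substrate.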

Series [2] in a line: Compound cytotoxicity, XTT-based colorimetric assay. It is filed as cell-based. As to conditions: human, uninfected MT2 cells, day 4, XTT. The method, boiled down:
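Run under the antiviral-assay protocol but without virus. Viability was read on day 4 and CC50 values were derived from the readout.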
(In general: Formazan colour is commonly taken as a measure of viable cells.)

The mark [3] stands for this setting: Renilla, NL43, MT-2 cells infected for 4-5 days with recombinant NL4-3 Renilla luciferase virus.

pEC50: −log10 of the molar value.

With `COc1ccc(N(C)C(=O)[C@H](Cc2ccccc2)NC(=O)c2cncc(C(=O)N[C@@H](Cc3ccccc3)C(=O)N(C)c3ccc(OC)cc3)c2)cc1` [Example 99], in series [1] (setting [3]), the pEC50 is 7.70. This compound came in with a CC50 at 4 days in series [2] of 1.8 µM.
For `COc1ccc(N(C)C(=O)[C@H](Cc2cc(F)cc(F)c2)NS(=O)(=O)CS(=O)(=O)N[C@@H](Cc2cc(F)cc(F)c2)C(=O)N(C)c2ccc(OC)cc2)cc1` [Example 201], the pEC50 in series [1] (setting [3]) was 6.32. Also, the CC50 at 4 days in series [2] amounted to 12.5 µM.
In the same order, the values of `CN(C(=O)[C@H](Cc1cc(F)cc(F)c1)NC(=O)NS(=O)(=O)N[C@@H](Cc1cc(F)cc(F)c1)C(=O)N(C)c1ccc(=O)n(C)c1)c1ccc(=O)n(C)c1` [Example 174] are 4.00 and at least 100 µM.
Turning to `COc1ccc(N(C)C(=O)[C@H](Cc2ccccc2)NC(=O)C=C(C)CC(=O)N[C@@H](Cc2ccccc2)C(=O)N(C)c2ccc(OC)cc2)cc1` (single isomer, unassigned) [Example 113], the pEC50 in series [1] (MT-2 cells infected for 4-5 days with recombinant NL4-3 Renilla luciferase virus) was 6.44. The CC50 at 4 days in series [2] was 25.3 µM.
In the case of `COc1ccc(N(C)C(=O)[C@H](Cc2ccccc2)NC(=O)NS(=O)(=O)N[C@@H](Cc2ccccc2)C(=O)N(C)c2ccc(OC)cc2)cc1` [Example 2], the pEC50 in series [1] (setting [3]) is 7.52. This compound also showed a CC50 at 4 days in series [2] of 77.9 µM.
Consider `COc1ccc(N(C)C(=O)[C@H](Cc2ccccc2)NC(=O)c2ccc(C(=O)N[C@@H](Cc3ccccc3)C(=O)N(C)c3ccc(OC)cc3)s2)cc1` [Example 58], for which the pEC50 in series [1] (setting [3]) is 6.21. The same compound showed a CC50 at 4 days in series [2] of 3.3 µM.
As for `CN(C(=O)[C@H](Cc1ccccc1)NC(=O)NS(=O)(=O)N[C@@H](Cc1ccccc1)C(=O)N(C)c1ccc2c(c1)OCO2)c1ccc2c(c1)OCO2` [Example 19], the pEC50 in series [1] (setting [3]) is 6.77. The CC50 at 4 days in series [2] was 99.5 µM.
In the same order, the values of `COc1ccc(N(C)C(=O)[C@H](Cc2ccccc2)NC(=O)NS(=O)(=O)N[C@@H](Cc2ccccc2)C(=O)N(C)c2ccc3c(c2)OCO3)cc1` [Example 14] are 7.10 and at least 50 µM.
The like results for `COc1ccc(N(C)C(=O)[C@H](Cc2ccccc2)NC(=O)Cc2ccc(CC(=O)N[C@@H](Cc3ccccc3)C(=O)N(C)c3ccc(OC)cc3)cc2)cc1` [Example 47] were, in that order, 5.56 and 11.1 µM.
In the same order, the values of `Cc1cc(N(C)C(=O)[C@H](Cc2ccccc2)NC(=O)NS(=O)(=O)N[C@@H](Cc2ccccc2)C(=O)N(C)c2ccc(F)c(C)c2)ccc1F` [Example 229] are 5.58 and 64.7 µM.
Regarding `CN(C(=O)[C@H](Cc1cc(F)cc(F)c1)NC(=O)NS(=O)(=O)N[C@@H](Cc1cc(F)cc(F)c1)C(=O)N(C)c1ccc(Cl)cc1)c1ccc(Cl)cc1` [Example 165], the pEC50 in series [1] (setting [3]) is 7.40. Besides, the CC50 at 4 days in series [2] turned out to be 30.3 µM.
In the same order, the values of `CN(C(=O)[C@H](Cc1cc(F)cc(F)c1)NC(=O)NS(=O)(=O)N[C@@H](Cc1cc(F)cc(F)c1)C(=O)N(C)c1ccc(N2CCOCC2)cc1)c1ccc(N2CCOCC2)cc1` [Example 183] are 7.05 and 78.9 µM.
`COc1ccc(N(C)C(=O)[C@H](Cc2ccccc2)NC(=O)c2cccc(C(=O)N[C@@H](Cc3ccccc3)C(=O)N(C)c3ccc(OC)cc3)n2)cc1` [Example 39]: the pEC50 in series [1] (setting [3]) is 6.02. In series [2], this compound displayed a CC50 at 4 days of at least 33.3 µM.
As for `COc1ccc(N(C)C(=O)[C@H](Cc2cc(F)cc(F)c2)NC(=O)c2cc(F)c(F)cc2C(=O)N[C@@H](Cc2cc(F)cc(F)c2)C(=O)N(C)c2ccc(OC)cc2)cc1` [Example 254], the pEC50 in series [1] (setting [3]) is 7.05. Also, the CC50 at 4 days in series [2] came to 10 µM.
In the case of `NC(=O)c1cc(-c2cccnc2[C@H](Cc2cc(F)cc(F)c2)NC(=O)NS(=O)(=O)N[C@@H](Cc2cc(F)cc(F)c2)c2ncccc2-c2ccc(F)c(C(N)=O)c2)ccc1F` [Example 70], in series [1] (setting [3]), the pEC50 is 6.82. In addition, the CC50 at 4 days in series [2] was at least 100 µM.
In the same order, the values of `COc1ccc(N(C)C(=O)[C@H](Cc2ccccc2)NC(=O)Cn2c(=O)n(CC(=O)N[C@@H](Cc3ccccc3)C(=O)N(C)c3ccc(OC)cc3)c3cc(F)ccc32)cc1` [Example 75] are 7.10 and 11.5 µM.

The term pEC50 denotes the negative decadic logarithm of the EC50, by convention in mol/L. Broadly, the CC50 is the concentration giving 50% cytotoxicity.
